The results in this text go back to patent publication US9814709B2, “Bruton's tyrosine kinase inhibitor” (HEFEI INSTITUTES OF PHYSICAL SCIENCE, CHINESE ACADEMY OF …, priority 2014, dated 2017).

Assay [1] deals with mouse TEL-JAK1-BaF3 cells (stably expressing TEL-JAK1 activated kinase). In words: Cell growth, Cell Titer-Glo. It is filed as cell-based. The conditions noted are these: TEL-JAK1-BaF3, 72 hrs, read-out: Half inhibitory concentration IC50. The source says:
(§1) We further assessed the selectivity of Compound 1 to inhibit the proliferation of cancer cells, by testing the effect of Btk inhibitor on the growth of cancer cells. In the example, we used B-lymphoma cell Ramos, cervical cancer cells HeLa, prostate cancer cells DU145, RV-1 and C4-2, colon cancer cells HCT116, blood cancer cells K562, B-cell lymphoma cells U2932, diffuse large B-cell lymphoma cells OCI-LY10, diffuse histiocytic lymphoma cells SU-DHL-2, diffuse large B-cell lymphoma cells TMD8, human non-small cell lung cancer cells H1975 (expressing EGFR L858R/T790M double mutant gene), human lung adenocarcinoma cells A549 (expressing wild-type EGFR gene), human non-small cell lung cancer cells H460 (expressing wild-type EGFR gene), mantel cell lymphoma (MCL) cells Z-138, EB virus infected human peripheral lymphocyte cells JVM-2, MCL cells REC-1, leukemia cells AML-3, acute promyelocytic leukemia cell line NB-4(Lu+), MDS-RAEB (myelodysplastic syndrome-excessive blasts) cell line SKM-1 human leukemia cell Nomo-1, human B-cell leukemia cell line NALM6, human leukocyte leukemia cells HEL, human T-cell lymphoma cells PF-382, acute myelocytic leukemia (AML) cell line MOLM14, AML cell line MOLM13, human Burkitt's lymphoma cells Namalwa, mouse pro-B cells BaF3, all of where were purchased from ATCC. Also used were mouse TEL-EGFR-BaF3 (stably expressing TEL-EGFR activated kinase), mouse TEL-EGFR/T790-BaF3 cells (stably expressing TEL-EGFR-T790M activated mutant kinase), mouse TEL-EGFR/L858R-BaF3 cells (stably expressing TEL-EGFR-L858R activated mutant kinase), mouse TEL-EGFR/T790/L858R-BaF3 (stably expressing TEL-EGFR-T790M/L858R activated mutant kinase), mouse TEL-BMX-BaF3 cells (stably expressing TEL-BMX activated kinase), mouse TEL-JAK1-BaF3 cells (stably expressing TEL-JAK1 activated kinase), mouse TEL-JAK2-BaF3 cells (stably expressing TEL-JAK2 activated kinase), mouse TEL-JAK3-BaF3 cells (stably expressing TEL-JAK3 activated kinase), where were all established by our laboratory via the following method: the kinase domain sequences of human EGFR, BMX, JAK1, JAK2, JAK3 were amplified respectively by PCR, and these kinase were inserted into the MSCV-Puro vectors with N-terminal TEL segment (Clontech); if there was a mutation, the mutation of the corresponding site was conducted by Site-Directed Mutagenesis kit (Stratagene); the resultants were stably transfected into mouse BaF3 cells by the means of retrovirus, and the IL-3 growth factors were removed, and eventually the EGFR, BMX, JAK1, JAK2, JAK3-transferred protein dependent cell lines were obtained.
(§2) In the example, different concentrations (0.000508 μM, 0.00152 μM, 0.00457 μM, 0.0137 μM, 0.0411 μM, 0.123 μM, 0.370 μM, 1.11 μM, 3.33 μM, 10 μM) of Compound 1 and Compound 19 were added into above cells, and were incubated for 72 hrs. The number of viable cells was determined by quantitating ATP in viable cells using Cell Titer-Glo® (Promega, U.S.) chemiluminescence cell viability assay kit.
(In general: ATP-based viability assays read luminescence as a measure of living cells.)

For the next assay, the system named is blood cancer cells K562. In words: Cancer cell growth, Cell Titer-Glo. It is filed as cell-based. The conditions noted are these: Homo sapiens; K562, 72 hrs; read-out: Half inhibitory concentration IC50.
Text: as §1, §2

A further assay concerns leukemia cells AML-3. In words: Cancer cell growth, Cell Titer-Glo. Type of assay: cell-based. The note with it: AML3; AML-3, 72 hrs; read-out: Half inhibitory concentration IC50.
Text: as §1, §2

Assay [2] concerns human non-small cell lung cancer cells H460 (expressing wild-type EGFR gene). The assay can be described thus: Cancer cell growth, Cell Titer-Glo. Type of assay: cell-based. The conditions noted are these: NCI-H460, H460, 72 hrs, read-out: Half inhibitory concentration IC50.
Text: as §1, §2

A further assay deals with B-lymphoma cell Ramos. The assay can be described thus: Cancer cell growth, Cell Titer-Glo. It is filed as cell-based. The conditions noted are these: Homo sapiens, 72 hrs, read-out: Half inhibitory concentration IC50.
Text: as §1, §2

Assay [3] concerns human lung adenocarcinoma cells A549 (expressing wild-type EGFR gene). The assay can be described thus: Cancer cell growth, Cell Titer-Glo. It is filed as cell-based. The note with it: A549, 72 hrs, read-out: Half inhibitory concentration IC50.
Text: as §1, §2

For another assay, the system named is MDS-RAEB cell line SKM-1. The assay can be described thus: Cancer cell growth, Cell Titer-Glo. Type of assay: cell-based. The note with it: Homo sapiens; SKM-1, 72 hrs; read-out: Half inhibitory concentration IC50.
Text: as §1, §2

Assay [4] has as its system human non-small cell lung cancer cells H1975 (expressing EGFR L858R/T790M double mutant gene). The assay can be described thus: Cancer cell growth, Cell Titer-Glo. Type of assay: cell-based. The note with it: NCI-H1975, H1975, 72 hrs, read-out: Half inhibitory concentration IC50.
Text: as §1, §2

The test system of assay [5] is diffuse histiocytic lymphoma cells SU-DHL-2. In words: Cancer cell growth, Cell Titer-Glo. Type of assay: cell-based. The note with it: Homo sapiens; SU-DHL-2, 72 hrs; read-out: Half inhibitory concentration IC50.
Text: as §1, §2

Assay [6] concerns prostate cancer cells DU145. In words: Cancer cell growth, Cell Titer-Glo. It is filed as cell-based. The conditions noted are these: Homo sapiens, DU-145; DU145, 72 hrs; read-out: Half inhibitory concentration IC50.
Text: as §1, §2

For assay [7], the system named is acute promyelocytic leukemia cell line NB-4(Lu+). The assay can be described thus: Cancer cell growth, Cell Titer-Glo. Type of assay: cell-based. The note with it: 72 hrs, read-out: Half inhibitory concentration IC50.
Text: as §1, §2

Assay [8] relates to diffuse large B-cell lymphoma cells OCI-LY10. In words: Cancer cell growth, Cell Titer-Glo. Type of assay: cell-based. The conditions noted are these: Homo sapiens; OCI-LY10, 72 hrs; read-out: Half inhibitory concentration IC50.
Text: as §1, §2

Assay [9] relates to colon cancer cells HCT116. In words: Cancer cell growth, Cell Titer-Glo. It is filed as cell-based. The conditions noted are these: Homo sapiens, HCT-116; HCT116, 72 hrs; read-out: Half inhibitory concentration IC50.
Text: as §1, §2

Assay [10] has as its system human B-cell leukemia cell line NALM6. In words: Cancer cell growth, Cell Titer-Glo. It is filed as cell-based. The note with it: NALM-6, NALM6, 72 hrs, read-out: Half inhibitory concentration IC50.
Text: as §1, §2

In assay [11] the test system is cervical cancer cells HeLa. The assay can be described thus: Cancer cell growth, Cell Titer-Glo. The conditions noted are these: Homo sapiens, 72 hrs, read-out: Half inhibitory concentration IC50. It is filed as cell-based.
Text: as §1, §2

Another assay has as its target T1, BTK WT protein (Homo sapiens, UniProt Q06187).
T1 construct: made in house; host or cells: 293T cells
In words: Btk acellular kinase assay, BTK WT protein purified from transfected 293T cells. It is filed as biochemical. The conditions noted are these: 100 μM ATP. The procedure: The BTK wild-type plasmid and the BTK mutant plasmid (C481S) were respectively transfected into 293T cells (purchased from ATCC), and the resultant cells were marked as BTK WT 293T cells and BTK C481S 293T cells, respectively. After cell culture for 2 days, the cells were harvested and purified to give BTK WT and BTK C481S proteins. The compounds of formula (I) were added to the BTK WT and BTK C481S proteins at different concentrations of 3 nM, 10 nM, 30 nM, 100 nM, 300 nM and 1000 nM, respectively, and reacted at room temperature for 30 min, followed by the addition of 100 μM ATP at 37° C. and reacting for 20 min.

T1 sequence (Q06187 whole entry): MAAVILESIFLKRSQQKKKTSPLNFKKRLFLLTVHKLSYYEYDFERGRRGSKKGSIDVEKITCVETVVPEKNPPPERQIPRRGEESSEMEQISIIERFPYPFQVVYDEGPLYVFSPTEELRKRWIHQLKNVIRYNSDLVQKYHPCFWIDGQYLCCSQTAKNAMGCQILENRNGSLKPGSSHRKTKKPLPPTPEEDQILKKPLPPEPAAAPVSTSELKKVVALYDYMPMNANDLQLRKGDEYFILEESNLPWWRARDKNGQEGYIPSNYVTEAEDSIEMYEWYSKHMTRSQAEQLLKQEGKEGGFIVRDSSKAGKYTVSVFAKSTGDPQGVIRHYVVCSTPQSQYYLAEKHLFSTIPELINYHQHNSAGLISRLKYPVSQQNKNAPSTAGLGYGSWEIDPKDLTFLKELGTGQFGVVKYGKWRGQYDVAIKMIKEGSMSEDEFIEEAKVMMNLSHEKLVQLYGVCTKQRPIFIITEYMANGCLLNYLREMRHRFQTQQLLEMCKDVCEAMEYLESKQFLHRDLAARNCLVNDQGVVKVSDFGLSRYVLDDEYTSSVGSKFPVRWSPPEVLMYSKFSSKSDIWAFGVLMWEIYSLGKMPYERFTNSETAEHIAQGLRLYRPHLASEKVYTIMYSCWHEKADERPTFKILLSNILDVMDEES

For `C=CC(=O)Nc1cc(-n2c(=O)ccc3cnc4ccc(-n5cccn5)cc4c32)ccc1C` [Compound 1, N-(2-methyl-5-(2-oxo-9-(1H-pyrazol-1-yl)benzo[H][1,6]naphthyridin-1(2H)-yl)phenyl)acrylamide], the IC50 in assay [1] was 1.6 µM; with blood cancer cells K562, above 10 µM; in the assay on leukemia cells AML-3 it was 7.3 µM; in [2] it was above 10 µM; in the assay on B-lymphoma cell Ramos, above 10 µM; in assay [3], 3.76 µM. Besides, the IC50 was 1.5 µM with MDS-RAEB cell line SKM-1; 3.81 µM in assay [4]; 5.02 µM in [5]; above 10 µM in assay [6]; 3.7 µM in assay [7]; above 10 µM in assay [8]. Also, the IC50 in assay [9] is above 10 µM; in assay [10], 1.17 µM; in assay [11], above 10 µM; at BTK WT protein (30 min room temperature preincubation, 37° C., 20 min) it was 0.056 µM.

Turning to `CCC(=O)Nc1cc(-n2c(=O)ccc3cnc4ccc(-n5cccn5)cc4c32)ccc1C` [Compound 19, N-(2-methyl-5-(2-oxo-9-(1H-pyrazol-1-yl)benzo[H][1,6]naphthyridin-1(2H)-yl)phenyl) propionamide], the IC50 (in assay [1]; in the assay on blood cancer cells K562; in the assay on leukemia cells AML-3; in assay [2]; in the assay on B-lymphoma cell Ramos; in assay [3]) was above 10 µM in each case. The IC50 (in the assay with MDS-RAEB cell line SKM-1; in [4]; in assay [5]; in [6]; in assay [7]; in [8]) was above 10 µM in each case. The IC50 in assay [9], in assay [10] and in assay [11] was above 10 µM throughout. For the same molecule, the “inhibitory effect on BTK WT” value at BTK WT protein (3-1000 nM) is listed as “no inhibitory effect”.
